Source: PubChem BioAssay AID2060502 (Molecular Pharmacology Branch, DTP, NCI, 2025)

Test system: 885724-159-R-J1-PDC complex spheroid viability
Assay: Anticancer human tumor 885724-159-R-J1-PDC patient-derived pancreatic adenocarcinoma cell line growth inhibition [GQUAD]
Conditions: for IC50: curve of first compound; for viability, T/C: stronger effect = lower value; active = viability on the fitted dose curve at most 10% of control; inactive = the rest
Summary of the method: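 Multi-cell-type spheroids of tumor cells with HUVEC and mesenchymal stem cells, treated with drug combinations. Concentrations descend in half-log steps from near clinical Cmax, or from 10 microM where Cmax is unknown; viability read-out.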

[1] = second compound 0.0316 µM, first compound 0.0316 µM
[2] = second compound 0.0316 µM, first compound 0.1 µM
[3] = second compound 0.0316 µM, first compound 0.316 µM
[4] = second compound 0.0316 µM, first compound 1 µM
[5] = second compound 0.0316 µM, first compound 3.16 µM
[6] = second compound 0.0316 µM, first compound 10 µM
[7] = second compound 0.1 µM, first compound 0.0316 µM
[8] = second compound 0.1 µM, first compound 0.1 µM
[9] = second compound 0.1 µM, first compound 0.316 µM
[10] = second compound 0.1 µM, first compound 1 µM
[11] = second compound 0.1 µM, first compound 3.16 µM
[12] = second compound 0.1 µM, first compound 10 µM
[13] = second compound 0.316 µM, first compound 0.0316 µM
[14] = second compound 0.316 µM, first compound 0.1 µM
[15] = second compound 0.316 µM, first compound 0.316 µM
[16] = second compound 0.316 µM, first compound 1 µM
[17] = second compound 0.316 µM, first compound 3.16 µM
[18] = second compound 0.316 µM, first compound 10 µM
[19] = second compound 1 µM, first compound 0.0316 µM
[20] = second compound 1 µM, first compound 0.1 µM
[21] = second compound 1 µM, first compound 0.316 µM
[22] = second compound 1 µM, first compound 1 µM
[23] = second compound 1 µM, first compound 3.16 µM
[24] = second compound 1 µM, first compound 10 µM
[25] = second compound 3.16 µM, first compound 0.0316 µM
[26] = second compound 3.16 µM, first compound 0.1 µM
[27] = second compound 3.16 µM, first compound 0.316 µM
[28] = second compound 3.16 µM, first compound 1 µM
[29] = second compound 3.16 µM, first compound 3.16 µM
[30] = second compound 3.16 µM, first compound 10 µM
[31] = second compound 10 µM, first compound 0.0316 µM
[32] = second compound 10 µM, first compound 0.1 µM
[33] = second compound 10 µM, first compound 0.316 µM
[34] = second compound 10 µM, first compound 1 µM
[35] = second compound 10 µM, first compound 3.16 µM
[36] = second compound 10 µM, first compound 10 µM
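Also: spheroids exposed to agents for seven days before readout.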
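For viability, T/C in this document: percent of vehicle control viability where 100% = DMSO wells.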

CCCS(=O)(=O)Nc1ccc(F)c(C(=O)c2c[nH]c3ncc(-c4ccc(Cl)cc4)cc23)c1F + Cc1cnc(CNC(=O)c2c(=O)c3ccc(N4CCCN(C)CC4)nc3n3c2sc2ccccc23)cn1
> 10 µM: IC50 (second compound 0.0316 µM) | IC50 (second compound 0.1 µM) | IC50 (second compound 0.316 µM) | IC50 (second compound 1 µM) | IC50 (second compound 3.16 µM) | IC50 (second compound 10 µM)
inactive: viability, T/C [1] 95% | viability, T/C [2] 106% | viability, T/C [3] 113% | viability, T/C [4] 141% | viability, T/C [5] 126% | viability, T/C [6] 74% | viability, T/C [7] 124% | viability, T/C [8] 128% | viability, T/C [9] 116% | viability, T/C [10] 135% | viability, T/C [11] 128% | viability, T/C [12] 83% | viability, T/C [13] 94% | viability, T/C [14] 103% | viability, T/C [15] 96.3% | viability, T/C [16] 98% | viability, T/C [17] 102% | viability, T/C [18] 72.2% | viability, T/C [19] 97.6% | viability, T/C [20] 84.6% | viability, T/C [21] 96% | viability, T/C [22] 96.7% | viability, T/C [23] 115% | viability, T/C [24] 70.6% | viability, T/C [25] 76.7% | viability, T/C [26] 75.2% | viability, T/C [27] 78.8% | viability, T/C [28] 80.3% | viability, T/C [29] 91.6% | viability, T/C [30] 58.7% | viability, T/C [31] 62.8% | viability, T/C [32] 71.2% | viability, T/C [33] 61.1% | viability, T/C [34] 73.4% | viability, T/C [35] 76% | viability, T/C [36] 50.2%

CC(C)(O)C1CCC(Nc2ccc3ncc(-c4cccc(C(F)(F)F)c4)n3n2)CC1 (stereo unspecified) + Cc1[nH]c2ccc(F)cc2c1-c1nc2c3cccnc3c3ncccc3c2[nH]1
1.03 µM: IC50 (second compound 10 µM)
0.538 µM: IC50 (second compound 1 µM)
1.52 µM: IC50 (second compound 0.316 µM)
active: viability, T/C [26] 8.78% | viability, T/C [27] 9.83% | viability, T/C [28] 9.8% | viability, T/C [29] 7.07% | viability, T/C [30] 7.05%
< 0.0316 µM: IC50 (second compound 3.16 µM)
2.5 µM: IC50 (second compound 0.0316 µM)
inactive: viability, T/C [1] 96.3% | viability, T/C [2] 93.1% | viability, T/C [3] 83.1% | viability, T/C [4] 84.6% | viability, T/C [5] 37.3% | viability, T/C [6] 44.7% | viability, T/C [7] 97.1% | viability, T/C [8] 91.6% | viability, T/C [9] 77.4% | viability, T/C [10] 72.1% | viability, T/C [11] 41.4% | viability, T/C [12] 41.2% | viability, T/C [13] 90.5% | viability, T/C [14] 78.3% | viability, T/C [15] 82.8% | viability, T/C [16] 55.5% | viability, T/C [17] 40.7% | viability, T/C [18] 38.3% | viability, T/C [19] 77% | viability, T/C [20] 58.2% | viability, T/C [21] 57.2% | viability, T/C [22] 47.6% | viability, T/C [23] 33.8% | viability, T/C [24] 29.6% | viability, T/C [25] 19.3% | viability, T/C [31] 67.9% | viability, T/C [32] 59% | viability, T/C [33] 57.7% | viability, T/C [34] 50.5% | viability, T/C [35] 28.2% | viability, T/C [36] 35.4%
2.76 µM: IC50 (second compound 0.1 µM)

O=C(NO)c1cnc(N2CCN(S(=O)(=O)c3ccc4ccccc4c3)CC2)nc1 + Cc1[nH]c2ccc(F)cc2c1-c1nc2c3cccnc3c3ncccc3c2[nH]1
active: viability, T/C [5] 2.03% | viability, T/C [6] 0.22% | viability, T/C [11] 2.38% | viability, T/C [12] 0.21% | viability, T/C [17] 3.31% | viability, T/C [18] 0.18% | viability, T/C [23] 2.39% | viability, T/C [24] 0.24% | viability, T/C [29] 1.99% | viability, T/C [30] 0.22% | viability, T/C [35] 3.66% | viability, T/C [36] 0.26%
< 0.0316 µM: IC50 (second compound 3.16 µM)
0.841 µM: IC50 (second compound 0.1 µM)
0.862 µM: IC50 (second compound 0.0316 µM)
0.802 µM: IC50 (second compound 10 µM)
0.894 µM: IC50 (second compound 0.316 µM)
0.706 µM: IC50 (second compound 1 µM)
inactive: viability, T/C [1] 101% | viability, T/C [2] 96.9% | viability, T/C [3] 108% | viability, T/C [4] 42.3% | viability, T/C [7] 101% | viability, T/C [8] 106% | viability, T/C [9] 82% | viability, T/C [10] 47.1% | viability, T/C [13] 90.7% | viability, T/C [14] 83% | viability, T/C [15] 95.6% | viability, T/C [16] 45.7% | viability, T/C [19] 69.2% | viability, T/C [20] 55.7% | viability, T/C [21] 94.9% | viability, T/C [22] 39.9% | viability, T/C [25] 14.8% | viability, T/C [26] 18.3% | viability, T/C [27] 31.6% | viability, T/C [28] 22.1% | viability, T/C [31] 66.2% | viability, T/C [32] 65.6% | viability, T/C [33] 74.6% | viability, T/C [34] 45.5%
